In this data set the test system is CCRIS mutagenicity, Ames/micronucleus/aberration tests. In words: CCRIS mutagenicity studies.
[1] abbreviates: Test System: AMES SALMONELLA TYPHIMURIUM, Strain/Indicator: TA100, Metabolic Activation: NONE, Method: STANDARD PLATE.

Active and inactive are the calls of the source. No rule for the calls is given here.

With `O[C@@H]1[C@H]2O[C@H]2c2c(cc3ccc4cccc5c6ccccc6c2c3c45)[C@H]1O`, the mutagenic call is, setting by setting: (Test System: AMES SALMONELLA TYPHIMURIUM, Strain/Indicator: TA97, Metabolic Activation: NONE, Method: PREINCUBATION (EXPOSURE IN MEDIUM WITH KCL)) “active; positive”; (Test System: AMES SALMONELLA TYPHIMURIUM, Strain/Indicator: TA97, Metabolic Activation: NONE, Method: PREINCUBATION (EXPOSURE IN MEDIUM WITHOUT KCL)) “active; positive”; (Test System: AMES SALMONELLA TYPHIMURIUM, Strain/Indicator: TA98, Metabolic Activation: NONE, Method: PREINCUBATION (EXPOSURE IN MEDIUM WITH KCL)) “active; positive”; (Test System: AMES SALMONELLA TYPHIMURIUM, Strain/Indicator: TA98, Metabolic Activation: NONE, Method: PREINCUBATION (EXPOSURE IN MEDIUM WITHOUT KCL)) “active; positive”; (Test System: AMES SALMONELLA TYPHIMURIUM, Strain/Indicator: TA100, Metabolic Activation: NONE, Method: PREINCUBATION (EXPOSURE IN MEDIUM WITH KCL)) “active; positive”; (Test System: AMES SALMONELLA TYPHIMURIUM, Strain/Indicator: TA100, Metabolic Activation: NONE, Method: PREINCUBATION (EXPOSURE IN MEDIUM WITHOUT KCL)) “active; positive”. Besides, the mutagenic call by setting is: (Test System: AMES SALMONELLA TYPHIMURIUM, Strain/Indicator: TA104, Metabolic Activation: NONE, Method: PREINCUBATION (EXPOSURE IN MEDIUM WITH KCL)) “active; positive”; (Test System: AMES SALMONELLA TYPHIMURIUM, Strain/Indicator: TA104, Metabolic Activation: NONE, Method: PREINCUBATION (EXPOSURE IN MEDIUM WITHOUT KCL)) “active; positive”; (Test System: CHINESE HAMSTER V-79, Strain/Indicator: V-79/6-THIOGUANINE, Metabolic Activation: NONE) “active; positive”.
Regarding `Cl.Cl.[Cr].c1ccc(-c2ccccn2)nc1.c1ccc(-c2ccccn2)nc1`, under setting [1], the mutagenic call is “active; positive”.
Same read-out and setting: for `N/C(=N\O)c1ccc([N+](=O)[O-])o1` the value was “active; positive”.
For `O=NN1C(C(=O)O)CSC1C(O)C(O)C(O)C(O)CO` (stereo not drawn), the mutagenic call is, setting by setting: (Test System: AMES SALMONELLA TYPHIMURIUM, Strain/Indicator: TA98, Metabolic Activation: NONE, Method: PREINCUBATION) “inactive; negative”; (Test System: AMES SALMONELLA TYPHIMURIUM, Strain/Indicator: TA98, Metabolic Activation: NONE, Method: STANDARD PLATE) “inactive; negative”; (Test System: AMES SALMONELLA TYPHIMURIUM, Strain/Indicator: TA98, Metabolic Activation: RAT, LIVER, S-9, AROCLOR 1254, Method: PREINCUBATION) “inactive; negative”; (Test System: AMES SALMONELLA TYPHIMURIUM, Strain/Indicator: TA98, Metabolic Activation: RAT, LIVER, S-9, AROCLOR 1254, Method: STANDARD PLATE) “inactive; negative”; (Test System: AMES SALMONELLA TYPHIMURIUM, Strain/Indicator: TA100, Metabolic Activation: NONE, Method: PREINCUBATION) “inactive; negative”; under setting [1], “inactive; negative”. Besides, the mutagenic call (Test System: AMES SALMONELLA TYPHIMURIUM, Strain/Indicator: TA100, Metabolic Activation: RAT, LIVER, S-9, AROCLOR 1254, Method: PREINCUBATION) is “inactive; negative” and the mutagenic call (Test System: AMES SALMONELLA TYPHIMURIUM, Strain/Indicator: TA100, Metabolic Activation: RAT, LIVER, S-9, AROCLOR 1254, Method: STANDARD PLATE) was “inactive; negative”.
For the compound `CC(N)(CN=[N+]=[N-])C(=O)O` (stereo not drawn), for the setting “Test System: AMES SALMONELLA TYPHIMURIUM, Strain/Indicator: TA1530, Metabolic Activation: NONE, Method: STANDARD PLATE”, the mutagenic call was “active; positive”.
For the compound `CCN(CC)Cc1cc(Nc2ccnc3cc(Cl)ccc23)ccc1O`, the mutagenic call (Test System: AMES SALMONELLA TYPHIMURIUM, Strain/Indicator: TA97A, Metabolic Activation: NONE, Method: STANDARD PLATE) is “inactive; negative”; the mutagenic call (Test System: AMES SALMONELLA TYPHIMURIUM, Strain/Indicator: TA97A, Metabolic Activation: RAT LIVER S-9, PHENOBARBITAL, Method: STANDARD PLATE) was “inactive; negative”; the mutagenic call under setting [1] was “inactive; negative”; the mutagenic call (Test System: AMES SALMONELLA TYPHIMURIUM, Strain/Indicator: TA100, Metabolic Activation: RAT LIVER S-9, PHENOBARBITAL, Method: STANDARD PLATE) is “inactive; negative”; the mutagenic call (Test System: AMES SALMONELLA TYPHIMURIUM, Strain/Indicator: TA102, Metabolic Activation: NONE, Method: STANDARD PLATE) is “inactive; negative”; the mutagenic call (Test System: AMES SALMONELLA TYPHIMURIUM, Strain/Indicator: TA102, Metabolic Activation: RAT LIVER S-9, PHENOBARBITAL, Method: STANDARD PLATE) is “inactive; negative”. The mutagenic call runs as follows: (Test System: AMES SALMONELLA TYPHIMURIUM, Strain/Indicator: TA104, Metabolic Activation: NONE, Method: STANDARD PLATE) “inactive; negative”; (Test System: AMES SALMONELLA TYPHIMURIUM, Strain/Indicator: TA104, Metabolic Activation: RAT LIVER S-9, PHENOBARBITAL, Method: STANDARD PLATE) “inactive; negative”.
